Experimental findings from US20250145606A1 (Arcus Biosciences, Inc., priority 2023, published 2025) are described below.

Like-named read-outs stand apart in the source and are kept apart here. Marks after values point to notes of the source that are not given here. A value given as a limit tells only on which side of the number the result lay.

By IC50 is commonly meant the midpoint of a concentration-inhibition curve.

In data set [1] the test system is cynomolgus monkey hepatocytes. Put plainly: Bioactivation assessment in monkey hepatocytes. In kind it is in vitro ADME. The settings on record: 5 μM, 4 hours. How it is done: (§1) Bioactivation Assessment Procedure
(§2) Pooled male Sprague Dawley rat (BioIVT), male beagle dog (BioIVT), male cynomolgus monkey (BioIVT), and a 50-donor pool of cryopreserved human hepatocytes (BioIVT) was thawed in pre-warmed 37° C. InVitroGro™ HT media (BioIVT), centrifuged, and resuspended in the InVitroGro™ HI media (BioIVT). The number of viable cells was determined by the Trypan blue exclusion method. The cells were diluted to a concentration of two million viable cells per milliliter (viability >80%) and seeded into round-bottom 96-well plates. The test articles were dissolved in DMSO and further diluted in 50% CH3CN and InVitroGro™ HI media with final concentrations of 0.05% DMSO and 0.5% CH3CN in the incubation mixture. Incubation was performed at a final concentration of one million cells per milliliter and 5 μM test compounds with continuous shaking at 1100 rpm in a 37° C., 5/95% CO2/air incubator with 100% relative humidity. After 4 hours, the samples were quenched by addition of 3 volumes of CH3CN, vortexed for 15 minutes, and centrifuged at 4200 rpm for 15 minutes at 10° C. (Sorvall Legend XTR centrifuge, Thermo Scientific, Langenselbold, Germany). 80 μL of the resulting supernatant was transferred into a new plate and mixed with 160 μL water followed by liquid chromatography-high resolution mass spectrometry (LC-HRMS) analysis.
(§3) Structural assignments of metabolites were determined through mass spectral analysis. The level of bioactivation was estimated based on the relative peak area of bioactivation products to all identified metabolites. The following equation was used: […]
(§4) Bioactivation products included glutathione conjugates, imine methides, quinones, diols, and other relevant metabolites.

Data set [2] has as its system human hepatocytes. In words: Bioactivation assessment in human hepatocytes. Format: in vitro ADME. The settings on record: 5 μM, 4 hours. How it is done:
as §1, §2, §3, §4

Data set [3] deals with Phospho-KIT (Y703) in M07e cells. Put plainly: Phospho-KIT (Y703) cellular assay in M07e cells. In kind it is cell-based. The following applies: M-07e, read-out: M07e Cell IC50. Put shortly:
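Serum-starved M07e cells preincubated 50 min at 37° C with 11-point half-log compound titration, then stimulated 10 min with SCF at 90.9 ng/mL final. Fixed, permeabilized cells stained for phospho-KIT Y703 and read by flow cytometry (live-gated geometric mean); IC50 by 4-parameter fit normalized to DMSO and positive control.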

Where [4] appears, read: phospho-KIT (Y703), SCF-stimulated M07e cells.

As for `Cc1ncc(C(=O)Nc2cc(C(=O)Nc3ccc(CC(F)(F)F)cn3)c(F)cc2C)s1` [Example 1, N-[4-Fluoro-2-methyl-5-[[5-(2,2,2-trifluoroethyl)pyridin-2-yl]carbamoyl]phenyl]-2-methyl-1,3-thiazole-5-carboxamide], the “Percent of total metabolism via bioactivation, Monkey hepatocytes” value (from here on “Percent … Monkey hepatocytes”) in data set [1] is 4%. In data set [2], the “Percent of total metabolism via bioactivation, Human hepatocytes” value (shortened to “Percent … Human hepatocytes”) is less than 0.1%^b. The IC50 in data set [3] is less than 100 nM.

On to `Cc1ncc(C(=O)Nc2cc(C(=O)Nc3ccc(OC4CC4)cn3)c(F)cc2C)s1` [Example 2, N-[5-[(5-Cyclopropyloxypyridin-2-yl)carbamoyl]-4-fluoro-2-methylphenyl]-2-methyl-1,3-thiazole-5-carboxamide], for which the IC50 in data set [3] (setting [4]) is less than 100 nM.

Consider `Cc1ncc(C(=O)Nc2cc(C(=O)Nc3ccc(C4CC4)cn3)c(F)cc2C)s1` [Example 3, N-[5-[(5-Cyclopropylpyridin-2-yl)carbamoyl]-4-fluoro-2-methylphenyl]-2-methyl-1,3-thiazole-5-carboxamide], for which the “Percent … Monkey hepatocytes” value in data set [1] is listed as 2%. Also, the “Percent … Human hepatocytes” value in data set [2] was less than 0.1%. The IC50 in data set [3] was less than 100 nM.

In the case of `Cc1ncc(C(=O)Nc2cc(C(=O)Nc3cnc(OCC(C)(F)F)cn3)c(F)cc2C)s1` [Example 4, N-[5-[[5-(2,2-Difluoropropoxy)pyrazin-2-yl]carbamoyl]-4-fluoro-2-methylphenyl]-2-methyl-1,3-thiazole-5-carboxamide], the IC50 in data set [3] (setting [4]) is less than 100 nM.

As to `Cc1ncc(C(=O)Nc2cc(C(=O)Nc3ccc(CC4CC4)cn3)c(F)cc2C)s1` [Example 5, N-[5-[[5-(Cyclopropylmethyl)pyridin-2-yl]carbamoyl]-4-fluoro-2-methylphenyl]-2-methyl-1,3-thiazole-5-carboxamide], the “Percent … Monkey hepatocytes” value in data set [1] is less than 1%. Moreover, the “Percent … Human hepatocytes” value in data set [2] is given as less than 1%. In data set [3], the IC50 is less than 100 nM.

For `Cc1ncc(C(=O)Nc2cc(C(=O)Nc3ccc(OC(F)F)cn3)c(F)cc2C)s1` [Example 38, N-[5-[[5-(difluoromethoxy)pyridin-2-yl]carbamoyl]-4-fluoro-2-methylphenyl]-2-methyl-1,3-thiazole-5-carboxamide], the IC50 in data set [3] (Phospho-KIT (Y703), M07e cells) was less than 100 nM.

Take `Cc1ncc(C(=O)Nc2cc(C(=O)Nc3ccc(CC(F)(F)F)cn3)c(F)cc2Cl)s1` [Example 46, N-[2-chloro-4-fluoro-5-[[5-(2,2,2-trifluoroethyl)pyridin-2-yl]carbamoyl]phenyl]-2-methyl-1,3-thiazole-5-carboxamide]: the IC50 in data set [3] (Phospho-KIT (Y703), M07e cells) is less than 100 nM.
